{"source": "ChEMBL document CHEMBL1201862", "about": "“PubChem BioAssay data set” (2004)", "test_in_all_cases": "growth of human tumour cells (NCI), 48 h", "key": {"CAKI-1": {"tested_on": "CAKI-1"}, "NCI-H522": {"tested_on": "NCI-H522"}, "Malme-3M": {"tested_on": "Malme-3M"}, "UACC-62": {"tested_on": "UACC-62"}, "DLD-1": {"tested_on": "DLD-1"}, "HCT-116": {"tested_on": "HCT-116"}, "SK-MEL-5": {"tested_on": "SK-MEL-5"}, "SNB-19": {"tested_on": "SNB-19"}, "MOLT-4": {"tested_on": "MOLT-4"}, "A549": {"tested_on": "A549"}, "HOP-92": {"tested_on": "HOP-92"}, "NCI-H23": {"tested_on": "NCI-H23"}, "SF-268": {"tested_on": "SF-268"}, "K562": {"tested_on": "K562"}, "786-0": {"tested_on": "786-0"}, "OVCAR-3": {"tested_on": "OVCAR-3"}, "Hs-578T": {"tested_on": "Hs-578T"}, "MDA-MB-231": {"tested_on": "MDA-MB-231"}, "MDA-MB-435": {"tested_on": "MDA-MB-435"}, "BT-549": {"tested_on": "BT-549"}}, "note": "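48-hour exposure; five concentrations; linearly interpolated endpoints. At the GI50, growth is halved.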 Active and inactive are the calls of the source. No stated cut-off is given here; in the data, active = GI50 up to about 1.1 µM and inactive = higher.", "data": [{"smiles": "O=[N+]([O-])c1cccc(C2=NOC3CCCC23)c1", "note": "(stereo not drawn)", "values": [{"measurement": "GI50", "setting": "CAKI-1", "value": "< 0.01 µM (active)"}, {"measurement": "GI50", "setting": "NCI-H522", "value": "> 100 µM (inactive)"}, {"measurement": "GI50", "setting": "Malme-3M", "value": "> 100 µM (inactive)"}, {"measurement": "GI50", "setting": "UACC-62", "value": "> 100 µM (inactive)"}, {"measurement": "GI50", "setting": "DLD-1", "value": "> 100 µM (inactive)"}, {"measurement": "GI50", "setting": "HCT-116", "value": "> 100 µM (inactive)"}, {"measurement": "GI50", "setting": "SK-MEL-5", "value": "> 100 µM (inactive)"}, {"measurement": "GI50", "setting": "SNB-19", "value": "25.2 µM (inactive)"}, {"measurement": "GI50", "setting": "MOLT-4", "value": "> 100 µM (inactive)"}, {"measurement": "GI50", "setting": "A549", "value": "> 100 µM (inactive)"}, {"measurement": "GI50", "setting": "HOP-92", "value": "> 100 µM (inactive)"}, {"measurement": "GI50", "setting": "NCI-H23", "value": "> 100 µM (inactive)"}, {"measurement": "GI50", "setting": "SF-268", "value": "> 100 µM (inactive)"}, {"measurement": "GI50", "setting": "K562", "value": "> 100 µM (inactive)"}, {"measurement": "GI50", "setting": "786-0", "value": "> 100 µM (inactive)"}, {"measurement": "GI50", "setting": "OVCAR-3", "value": "> 100 µM (inactive)"}]}, {"smiles": "CC(=O)NC1COC(COC(=O)CCCCCCCCCCNC(=O)c2ccc([N+](=O)[O-])c3c(=O)c4ccccc4[nH]c23)C(O)C1OC(C)C(=O)NC(C(=O)NC(CCC(N)=O)C(=O)OCc1ccccc1)C(C)C", "note": "(stereo not drawn)", "values": [{"measurement": "GI50", "setting": "Hs-578T", "value": "6.35 µM (inactive)"}, {"measurement": "GI50", "setting": "CAKI-1", "value": "15.2 µM (inactive)"}, {"measurement": "GI50", "setting": "NCI-H522", "value": "12.3 µM (inactive)"}, {"measurement": "GI50", "setting": "Malme-3M", "value": "38.6 µM (inactive)"}, {"measurement": "GI50", "setting": "MDA-MB-231", "value": "38.8 µM (inactive)"}, {"measurement": "GI50", "setting": "UACC-62", "value": "25.2 µM (inactive)"}, {"measurement": "GI50", "setting": "DLD-1", "value": "3.21 µM (inactive)"}, {"measurement": "GI50", "setting": "HCT-116", "value": "12.2 µM (inactive)"}, {"measurement": "GI50", "setting": "SK-MEL-5", "value": "29.6 µM (inactive)"}, {"measurement": "GI50", "setting": "MDA-MB-435", "value": "36.8 µM (inactive)"}, {"measurement": "GI50", "setting": "SNB-19", "value": "6.03 µM (inactive)"}, {"measurement": "GI50", "setting": "MOLT-4", "value": "18.6 µM (inactive)"}, {"measurement": "GI50", "setting": "A549", "value": "25 µM (inactive)"}, {"measurement": "GI50", "setting": "HOP-92", "value": "8.05 µM (inactive)"}, {"measurement": "GI50", "setting": "NCI-H23", "value": "11.4 µM (inactive)"}, {"measurement": "GI50", "setting": "SF-268", "value": "7.36 µM (inactive)"}, {"measurement": "GI50", "setting": "K562", "value": "9.48 µM (inactive)"}, {"measurement": "GI50", "setting": "786-0", "value": "15 µM (inactive)"}, {"measurement": "GI50", "setting": "BT-549", "value": "48.8 µM (inactive)"}, {"measurement": "GI50", "setting": "OVCAR-3", "value": "3.57 µM (inactive)"}]}, {"smiles": "Cc1cccc(/N=C2\\NC(=O)C(CC(=O)Nc3ccc(C)cc3C)S2)c1", "note": "(stereo not drawn)", "values": [{"measurement": "GI50", "setting": "CAKI-1", "value": "60.4 µM (inactive)"}, {"measurement": "GI50", "setting": "NCI-H522", "value": "64.3 µM (inactive)"}, {"measurement": "GI50", "setting": "Malme-3M", "value": "> 100 µM (inactive)"}, {"measurement": "GI50", "setting": "UACC-62", "value": "68.2 µM (inactive)"}, {"measurement": "GI50", "setting": "DLD-1", "value": "> 100 µM (inactive)"}, {"measurement": "GI50", "setting": "HCT-116", "value": "> 100 µM (inactive)"}, {"measurement": "GI50", "setting": "SK-MEL-5", "value": "94 µM (inactive)"}, {"measurement": "GI50", "setting": "SNB-19", "value": "74.8 µM (inactive)"}, {"measurement": "GI50", "setting": "MOLT-4", "value": "40.4 µM (inactive)"}, {"measurement": "GI50", "setting": "A549", "value": "> 100 µM (inactive)"}, {"measurement": "GI50", "setting": "HOP-92", "value": "55.7 µM (inactive)"}, {"measurement": "GI50", "setting": "NCI-H23", "value": "57 µM (inactive)"}, {"measurement": "GI50", "setting": "SF-268", "value": "> 100 µM (inactive)"}, {"measurement": "GI50", "setting": "K562", "value": "65.8 µM (inactive)"}, {"measurement": "GI50", "setting": "786-0", "value": "> 100 µM (inactive)"}, {"measurement": "GI50", "setting": "OVCAR-3", "value": "69 µM (inactive)"}]}, {"smiles": "CC(C)c1ccc(O)c(=O)cc1", "note": "[GAMMA-THUJAPLICIN]", "values": [{"measurement": "GI50", "setting": "CAKI-1", "value": "11.1 µM (inactive)"}, {"measurement": "GI50", "setting": "NCI-H522", "value": "3.39 µM (inactive)"}, {"measurement": "GI50", "setting": "Malme-3M", "value": "15.3 µM (inactive)"}, {"measurement": "GI50", "setting": "UACC-62", "value": "3.53 µM (inactive)"}, {"measurement": "GI50", "setting": "DLD-1", "value": "5.56 µM (inactive)"}, {"measurement": "GI50", "setting": "HCT-116", "value": "2.8 µM (inactive)"}, {"measurement": "GI50", "setting": "SK-MEL-5", "value": "9.35 µM (inactive)"}, {"measurement": "GI50", "setting": "SNB-19", "value": "7.74 µM (inactive)"}, {"measurement": "GI50", "setting": "MOLT-4", "value": "2.79 µM (inactive)"}, {"measurement": "GI50", "setting": "A549", "value": "6.59 µM (inactive)"}, {"measurement": "GI50", "setting": "HOP-92", "value": "5.62 µM (inactive)"}, {"measurement": "GI50", "setting": "NCI-H23", "value": "7.38 µM (inactive)"}, {"measurement": "GI50", "setting": "SF-268", "value": "4.06 µM (inactive)"}, {"measurement": "GI50", "setting": "K562", "value": "9.33 µM (inactive)"}, {"measurement": "GI50", "setting": "786-0", "value": "5.87 µM (inactive)"}, {"measurement": "GI50", "setting": "OVCAR-3", "value": "2.48 µM (inactive)"}]}, {"smiles": "CCOC(=O)/C(=C/c1ccccn1)C(=O)c1ccccc1", "values": [{"measurement": "GI50", "setting": "CAKI-1", "value": "14.5 µM (inactive)"}, {"measurement": "GI50", "setting": "NCI-H522", "value": "5.47 µM (inactive)"}, {"measurement": "GI50", "setting": "Malme-3M", "value": "13.5 µM (inactive)"}, {"measurement": "GI50", "setting": "UACC-62", "value": "9.59 µM (inactive)"}, {"measurement": "GI50", "setting": "DLD-1", "value": "10.4 µM (inactive)"}, {"measurement": "GI50", "setting": "HCT-116", "value": "13.8 µM (inactive)"}, {"measurement": "GI50", "setting": "SK-MEL-5", "value": "14.3 µM (inactive)"}, {"measurement": "GI50", "setting": "SNB-19", "value": "17.6 µM (inactive)"}, {"measurement": "GI50", "setting": "MOLT-4", "value": "8.34 µM (inactive)"}, {"measurement": "GI50", "setting": "A549", "value": "19.2 µM (inactive)"}, {"measurement": "GI50", "setting": "HOP-92", "value": "7.66 µM (inactive)"}, {"measurement": "GI50", "setting": "NCI-H23", "value": "15.8 µM (inactive)"}, {"measurement": "GI50", "setting": "SF-268", "value": "19.1 µM (inactive)"}, {"measurement": "GI50", "setting": "K562", "value": "5.19 µM (inactive)"}, {"measurement": "GI50", "setting": "786-0", "value": "12.8 µM (inactive)"}, {"measurement": "GI50", "setting": "OVCAR-3", "value": "14.1 µM (inactive)"}]}, {"smiles": "CC(=O)OCC1OC(Nc2nc(O)n(C)c(=O)c2-c2csc(N)n2)C(OC(C)=O)C(OC(C)=O)C1OC(C)=O", "note": "(stereo not drawn)", "values": [{"measurement": "GI50", "setting": "CAKI-1", "value": "> 100 µM (inactive)"}, {"measurement": "GI50", "setting": "NCI-H522", "value": "> 100 µM (inactive)"}, {"measurement": "GI50", "setting": "Malme-3M", "value": "> 100 µM (inactive)"}, {"measurement": "GI50", "setting": "UACC-62", "value": "> 100 µM (inactive)"}, {"measurement": "GI50", "setting": "DLD-1", "value": "> 100 µM (inactive)"}, {"measurement": "GI50", "setting": "HCT-116", "value": "> 100 µM (inactive)"}, {"measurement": "GI50", "setting": "SK-MEL-5", "value": "> 100 µM (inactive)"}, {"measurement": "GI50", "setting": "SNB-19", "value": "> 100 µM (inactive)"}, {"measurement": "GI50", "setting": "MOLT-4", "value": "> 100 µM (inactive)"}, {"measurement": "GI50", "setting": "A549", "value": "> 100 µM (inactive)"}, {"measurement": "GI50", "setting": "HOP-92", "value": "> 100 µM (inactive)"}, {"measurement": "GI50", "setting": "NCI-H23", "value": "> 100 µM (inactive)"}, {"measurement": "GI50", "setting": "SF-268", "value": "> 100 µM (inactive)"}, {"measurement": "GI50", "setting": "K562", "value": "> 100 µM (inactive)"}, {"measurement": "GI50", "setting": "786-0", "value": "> 100 µM (inactive)"}, {"measurement": "GI50", "setting": "OVCAR-3", "value": "> 100 µM (inactive)"}]}, {"smiles": "COc1ccc2[nH]c3c(C)c4cc[n+](C)cc4c(C)c3c2c1", "values": [{"measurement": "GI50", "setting": "Hs-578T", "value": "0.199 µM (active)"}, {"measurement": "GI50", "setting": "NCI-H522", "value": "0.562 µM (active)"}, {"measurement": "GI50", "setting": "Malme-3M", "value": "1.06 µM (active)"}, {"measurement": "GI50", "setting": "UACC-62", "value": "3.48 µM (inactive)"}, {"measurement": "GI50", "setting": "DLD-1", "value": "1.87 µM (inactive)"}, {"measurement": "GI50", "setting": "HCT-116", "value": "2 µM (inactive)"}, {"measurement": "GI50", "setting": "SK-MEL-5", "value": "1.76 µM (inactive)"}, {"measurement": "GI50", "setting": "SNB-19", "value": "0.273 µM (active)"}, {"measurement": "GI50", "setting": "HOP-92", "value": "3.21 µM (inactive)"}, {"measurement": "GI50", "setting": "NCI-H23", "value": "0.649 µM (active)"}, {"measurement": "GI50", "setting": "SF-268", "value": "0.197 µM (active)"}, {"measurement": "GI50", "setting": "BT-549", "value": "1.87 µM (inactive)"}, {"measurement": "GI50", "setting": "OVCAR-3", "value": "3.09 µM (inactive)"}]}]}
